# Assay: Plasma pharmacokinetics of FN-1501 and metabolite M3 in patients (LC/MS-MS, noncompartmental)
# Type: in vivo, human
# Settings: mean
# Procedure: For PK assessment, blood samples were collected pre-dose and 0.083, 0.25, 0.5, 1, 2, 4, 6, 8, 12, 24, and 48 h post-dose on Cycle 1, Day 1, and pre-dose on Cycle 2, Day 1. Plasma concentrations of FN-1501 and its metabolite M3 were analyzed at KCAS in Shawnee, KS, using a validated liquid chromatography/tandem mass spectrometry method. Primary pharmacokinetic (PK) endpoints were derived from FN-1501 and M3 concentration–time profiles and were analyzed using standard noncompartmental methods of analysis (Phoenix version 8).
compound,measurement,setting,value
CN1CCN(Cc2ccc(NC(=O)c3[nH]ncc3Nc3ncnc4[nH]ccc34)cc2)CC1 [FN-1501],AUClast,2.5 mg IV,0.0294 ± 0.0119 µg·h/mL
same,AUC∞,2.5 mg IV,0.0324 ± 0.0131 µg·h/mL
same,CL,2.5 mg IV,85.1 ± 26.8 L/h
same,Cmax,2.5 mg IV,0.012 ± 0.00142 µg/mL
same,MRT∞,2.5 mg IV,11.7 ± 4.59 h
same,Vss,2.5 mg IV,913 ± 206 L
same,Vz,2.5 mg IV,1510 ± 421 L
same,t1/2,2.5 mg IV,12.8 ± 3.5 h
same,tmax,2.5 mg IV,1.2 ± 0.10 h
same,AUClast,5 mg IV,0.0521 ± 0.0182 µg·h/mL
same,AUC∞,5 mg IV,0.0565 ± 0.0182 µg·h/mL
same,CL,5 mg IV,93.9 ± 25.2 L/h
same,Cmax,5 mg IV,0.0255 ± 0.0173 µg/mL
same,MRT∞,5 mg IV,13.7 ± 3.74 h
same,Vss,5 mg IV,1320 ± 619 L
same,Vz,5 mg IV,2570 ± 932 L
same,t1/2,5 mg IV,18.6 ± 2.34 h
same,tmax,5 mg IV,1.1 ± 0.02 h
same,AUClast,10 mg IV,0.119 ± 0.0326 µg·h/mL
same,AUC∞,10 mg IV,0.129 ± 0.0413 µg·h/mL
same,CL,10 mg IV,84.7 ± 32.4 L/h
same,Cmax,10 mg IV,0.0369 ± 0.0175 µg/mL
same,MRT∞,10 mg IV,12.5 ± 2.84 h
same,Vss,10 mg IV,1110 ± 664 L
same,Vz,10 mg IV,1720 ± 925 L
same,t1/2,10 mg IV,13.7 ± 2.68 h
same,tmax,10 mg IV,1.2 ± 0.15 h
same,AUClast,15 mg IV,0.138 ± 0.0108 µg·h/mL
same,AUC∞,15 mg IV,0.153 ± 0.00845 µg·h/mL
same,CL,15 mg IV,98.5 ± 5.29 L/h
same,Cmax,15 mg IV,0.0356 ± 0.00215 µg/mL
same,MRT∞,15 mg IV,16.1 ± 2.64 h
same,Vss,15 mg IV,1600 ± 331 L
same,Vz,15 mg IV,2370 ± 536 L
same,t1/2,15 mg IV,16.6 ± 3 h
same,tmax,15 mg IV,1.2 ± 0.14 h
same,AUClast,22.5 mg IV,0.251 ± 0.0878 µg·h/mL
same,AUC∞,22.5 mg IV,0.239 ± 0.0554 µg·h/mL
same,CL,22.5 mg IV,96.9 ± 22.5 L/h
same,Cmax,22.5 mg IV,0.0658 ± 0.0245 µg/mL
same,MRT∞,22.5 mg IV,16.4 ± 1.01 h
same,Vss,22.5 mg IV,1600 ± 466 L
same,Vz,22.5 mg IV,2570 ± 663 L
same,t1/2,22.5 mg IV,18.3 ± 0.49 h
same,tmax,22.5 mg IV,1.2 ± 0.19 h
same,AUClast,30 mg IV,0.297 ± 0.0558 µg·h/mL
same,AUC∞,30 mg IV,0.341 ± 0.0471 µg·h/mL
same,CL,30 mg IV,89.1 ± 13.3 L/h
same,Cmax,30 mg IV,0.0878 ± 0.0375 µg/mL
same,MRT∞,30 mg IV,13.4 ± 8.49 h
same,Vss,30 mg IV,1130 ± 619 L
same,Vz,30 mg IV,1500 ± 786 L
same,t1/2,30 mg IV,12.4 ± 7.43 h
same,tmax,30 mg IV,1.1 ± 0.11 h
same,AUClast,40 mg IV,0.437 ± 0.0772 µg·h/mL
same,AUC∞,40 mg IV,0.499 ± 0.122 µg·h/mL
same,CL,40 mg IV,83.6 ± 18.6 L/h
same,Cmax,40 mg IV,0.128 ± 0.0419 µg/mL
same,MRT∞,40 mg IV,18.3 ± 6.19 h
same,Vss,40 mg IV,1450 ± 185 L
same,Vz,40 mg IV,2160 ± 195 L
same,t1/2,40 mg IV,18.7 ± 5.68 h
same,tmax,40 mg IV,1.1 ± 0.044 h
